The source made the active and inactive calls. The rule behind the calls is not given here.
Legend:
[1] = organism: Rattus norvegicus; assay: Inhibitory activity for 5-HT uptake was determined using [3H]- Citalopram; assay type: functional
[2] = target: T1, Serotonin 3 (5-HT3) receptor (Rattus norvegicus, UniProt P35563+Q9JJ16); assay: Inhibition of [3H]BRL-43694 binding to 5-hydroxytryptamine 3 receptor of rat cortical homogenate.
T1 sequence (P35563 whole entry): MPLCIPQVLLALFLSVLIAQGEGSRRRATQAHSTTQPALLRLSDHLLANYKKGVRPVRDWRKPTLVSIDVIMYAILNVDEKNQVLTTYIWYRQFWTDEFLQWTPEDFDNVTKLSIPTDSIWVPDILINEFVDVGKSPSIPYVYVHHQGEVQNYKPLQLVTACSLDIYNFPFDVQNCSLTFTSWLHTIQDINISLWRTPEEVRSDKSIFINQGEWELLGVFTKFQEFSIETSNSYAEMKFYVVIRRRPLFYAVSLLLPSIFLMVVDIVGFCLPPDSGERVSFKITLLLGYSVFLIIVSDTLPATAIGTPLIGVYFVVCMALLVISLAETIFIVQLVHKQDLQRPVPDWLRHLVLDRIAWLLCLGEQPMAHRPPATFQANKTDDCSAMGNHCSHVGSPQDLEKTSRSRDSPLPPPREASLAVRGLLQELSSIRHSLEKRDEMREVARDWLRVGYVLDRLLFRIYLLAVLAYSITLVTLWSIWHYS
T1 sequence (Q9JJ16 whole entry): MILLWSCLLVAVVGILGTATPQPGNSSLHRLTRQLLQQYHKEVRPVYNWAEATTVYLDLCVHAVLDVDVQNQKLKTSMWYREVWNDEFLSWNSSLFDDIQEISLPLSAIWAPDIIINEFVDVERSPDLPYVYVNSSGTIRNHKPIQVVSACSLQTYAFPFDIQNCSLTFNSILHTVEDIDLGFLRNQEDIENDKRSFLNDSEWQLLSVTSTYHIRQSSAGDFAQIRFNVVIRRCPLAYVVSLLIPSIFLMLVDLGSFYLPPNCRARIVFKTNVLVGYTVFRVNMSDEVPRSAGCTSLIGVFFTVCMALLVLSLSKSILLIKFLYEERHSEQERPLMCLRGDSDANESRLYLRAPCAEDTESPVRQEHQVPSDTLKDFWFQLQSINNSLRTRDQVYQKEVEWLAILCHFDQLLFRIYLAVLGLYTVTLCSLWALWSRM

[3] = tested on: NG108-15; assay: Effective concentration for uptake of [14C]guanidinium on NG108-15 cells; assay type: functional, cell-based; conditions: Murinae
[4] = tested on: NG108-15; assay: Agonist/antagonist activity by observing the uptake of [14C]guanidinium, on the neuroblastoma-glioma hybrid NG108-15 cells; pure agonist; assay type: functional, cell-based; conditions: filed as agonist
[5] = target: T2, Serotonin 3 (5-HT3) receptor (Rattus norvegicus) (UniProt P35563+Q9JJ16); assay: The stimulation of cardiac 5-HT3 receptors evaluated by using von Bezold-Jarisch reflex test in urethane-anesthetized rats; Partial agonist; assay type: functional; conditions: filed as partial agonist
[6] = target: T2, Serotonin 3 (5-HT3) receptor (Rattus norvegicus); assay: Dose required to stimulate cardiac 5-HT3 receptors evaluated by using von Bezold-Jarisch reflex test in urethane-anesthetized rats after intravenous administration; assay type: functional, organism-based
[7] = target: T2, Serotonin 3 (5-HT3) receptor (Rattus norvegicus); assay: The stimulation of cardiac 5-HT3 receptors evaluated by using von Bezold-Jarisch reflex test in urethane-anesthetized rats; partial agonist; assay type: functional; conditions: filed as partial agonist
[8] = target: T3, 5-hydroxytryptamine receptor 1A (Rattus norvegicus, UniProt P19327); assay: Inhibition of radiolabeled [3H]-8-OH-DPAT ligand binding to 5-hydroxytryptamine 1A receptor
T3 sequence (P19327 whole entry): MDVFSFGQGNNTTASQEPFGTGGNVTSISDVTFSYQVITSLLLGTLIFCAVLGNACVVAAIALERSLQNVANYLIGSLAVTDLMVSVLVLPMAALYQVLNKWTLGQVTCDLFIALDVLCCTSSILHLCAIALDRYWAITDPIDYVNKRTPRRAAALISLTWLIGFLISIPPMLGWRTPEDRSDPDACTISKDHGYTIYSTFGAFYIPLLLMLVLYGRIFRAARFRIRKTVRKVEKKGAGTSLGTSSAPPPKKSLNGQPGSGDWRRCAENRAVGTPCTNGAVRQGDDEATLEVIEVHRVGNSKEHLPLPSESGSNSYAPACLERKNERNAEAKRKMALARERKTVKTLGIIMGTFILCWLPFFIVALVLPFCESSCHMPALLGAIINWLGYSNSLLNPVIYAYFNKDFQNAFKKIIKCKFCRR

[9] = target: 5-hydroxytryptamine receptor 1B (Rattus norvegicus, UniProt P28564); assay: Inhibition of radiolabeled [3H]-5-HT ligand binding to 5-hydroxytryptamine 1B receptor
Chain of 5-hydroxytryptamine receptor 1B (P28564 whole entry): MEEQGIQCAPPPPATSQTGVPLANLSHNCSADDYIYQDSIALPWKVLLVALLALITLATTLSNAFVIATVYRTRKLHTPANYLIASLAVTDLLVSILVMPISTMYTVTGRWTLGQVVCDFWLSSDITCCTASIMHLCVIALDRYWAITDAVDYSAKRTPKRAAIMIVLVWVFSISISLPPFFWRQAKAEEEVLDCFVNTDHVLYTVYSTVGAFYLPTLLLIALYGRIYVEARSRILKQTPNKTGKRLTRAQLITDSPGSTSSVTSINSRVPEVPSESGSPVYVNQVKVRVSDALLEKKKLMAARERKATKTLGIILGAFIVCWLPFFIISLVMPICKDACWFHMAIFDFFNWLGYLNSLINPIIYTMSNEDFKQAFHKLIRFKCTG

[10] = target: 5-hydroxytryptamine receptor 2A (Rattus norvegicus, UniProt P14842); assay: Inhibition of radiolabeled [3H]-Ketanserin ligand binding to 5-hydroxytryptamine 2A receptor
Chain of 5-hydroxytryptamine receptor 2A (P14842 whole entry): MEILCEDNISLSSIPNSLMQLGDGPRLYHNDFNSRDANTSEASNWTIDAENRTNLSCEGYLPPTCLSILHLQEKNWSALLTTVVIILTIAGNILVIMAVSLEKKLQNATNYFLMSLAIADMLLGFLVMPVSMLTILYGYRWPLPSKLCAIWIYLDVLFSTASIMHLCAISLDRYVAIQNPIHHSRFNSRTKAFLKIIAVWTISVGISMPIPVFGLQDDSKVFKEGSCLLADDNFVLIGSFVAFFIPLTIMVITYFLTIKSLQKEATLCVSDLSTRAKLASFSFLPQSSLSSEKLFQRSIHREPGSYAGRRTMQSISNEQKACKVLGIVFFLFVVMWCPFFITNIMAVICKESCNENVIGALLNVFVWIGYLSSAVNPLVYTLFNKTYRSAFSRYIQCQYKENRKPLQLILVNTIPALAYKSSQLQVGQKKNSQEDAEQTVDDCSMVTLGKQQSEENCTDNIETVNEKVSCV

[11] = target: T4, 5-hydroxytryptamine receptor 2C (Rattus norvegicus, UniProt P08909); assay: Inhibition of radiolabeled [3H]mesulergine ligand binding to 5-hydroxytryptamine 2C receptor
T4 sequence (P08909 whole entry): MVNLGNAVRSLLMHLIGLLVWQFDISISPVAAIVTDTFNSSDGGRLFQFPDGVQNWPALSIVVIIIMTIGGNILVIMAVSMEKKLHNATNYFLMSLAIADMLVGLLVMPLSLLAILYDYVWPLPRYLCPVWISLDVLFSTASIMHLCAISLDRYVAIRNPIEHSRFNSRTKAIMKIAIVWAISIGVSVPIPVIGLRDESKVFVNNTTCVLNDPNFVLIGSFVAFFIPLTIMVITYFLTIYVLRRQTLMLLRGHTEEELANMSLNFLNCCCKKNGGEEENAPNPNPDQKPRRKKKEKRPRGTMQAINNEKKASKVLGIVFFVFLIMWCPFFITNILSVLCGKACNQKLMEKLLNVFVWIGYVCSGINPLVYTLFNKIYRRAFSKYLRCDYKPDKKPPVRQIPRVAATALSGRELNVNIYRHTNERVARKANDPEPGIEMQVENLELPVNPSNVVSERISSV

[12] = target: 5-hydroxytryptamine receptor 4 (Rattus norvegicus, UniProt Q62758); assay: Inhibition of radiolabeled [3H]GR-113808 ligand binding to 5-hydroxytryptamine 4 receptor
Chain of 5-hydroxytryptamine receptor 4 (Q62758 whole entry): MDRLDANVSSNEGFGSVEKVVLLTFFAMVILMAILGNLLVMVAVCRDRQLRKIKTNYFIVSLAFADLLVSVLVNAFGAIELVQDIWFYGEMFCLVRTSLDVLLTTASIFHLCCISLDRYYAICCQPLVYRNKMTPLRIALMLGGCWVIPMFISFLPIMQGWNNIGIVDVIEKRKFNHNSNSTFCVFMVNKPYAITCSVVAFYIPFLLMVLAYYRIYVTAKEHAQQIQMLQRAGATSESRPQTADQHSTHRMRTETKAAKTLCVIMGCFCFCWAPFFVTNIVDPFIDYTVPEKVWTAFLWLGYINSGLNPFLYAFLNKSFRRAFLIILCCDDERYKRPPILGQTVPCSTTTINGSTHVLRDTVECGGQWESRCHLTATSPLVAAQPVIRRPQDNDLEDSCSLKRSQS

[13] = target: T2, Serotonin 3 (5-HT3) receptor (Rattus norvegicus); assay: The stimulation of cardiac 5-HT3 receptors evaluated by using von Bezold-Jarisch reflex test in urethane-anesthetized rats; pure antagonist; assay type: functional; conditions: filed as antagonist
[14] = Potency to cross blood-brain barrier was assessed; assay type: functional
[15] = target: T2, Serotonin 3 (5-HT3) receptor (Rattus norvegicus); assay: The stimulation of cardiac 5-HT3 receptors evaluated by using von Bezold-Jarisch reflex test in urethane-anesthetized rats; pure agonist; assay type: functional; conditions: filed as agonist
[16] = target: T1, Serotonin 3 (5-HT3) receptor; assay: Inhibition of radiolabeled [3H]-Zacopride ligand binding to 5-hydroxytryptamine 3 receptor; assay type: protein-complex assay
[17] = target: T4, 5-hydroxytryptamine receptor 2C; assay: Inhibition of radiolabeled [3H]-Ketanserin ligand binding to 5-hydroxytryptamine 2C receptor
[18] = target: T1, Serotonin 3 (5-HT3) receptor; assay: Inhibition of [3H]BRL-43694 binding to 5-hydroxytryptamine 3 receptor of rat cortical homogenate; Not active at 10000 nm
[19] = tested on: NG108-15; assay: Agonist/antagonist activity by observing the uptake of [14C]guanidinium, on the neuroblastoma-glioma hybrid NG108-15 cells; Not active at 10000 nm; assay type: functional, cell-based
[20] = target: T2, Serotonin 3 (5-HT3) receptor (Rattus norvegicus); assay: Dose required to stimulate cardiac 5-HT3 receptors evaluated by using von Bezold-Jarisch reflex test in urethane-anesthetized rats; assay type: functional
[21] = target: T2, Serotonin 3 (5-HT3) receptor (Rattus norvegicus); assay: The stimulation of cardiac 5-HT3 receptors evaluated by using von Bezold-Jarisch reflex test inurethane-anesthetized rats; Pure Antagonist; assay type: functional; conditions: filed as antagonist

SMILES	IC50 [1] [nM]	IC50 [2] [nM]	EC50 [3] [nM]	Efficacy [4]	ID50 [6] [mg/kg]	further results
NCCc1c[nH]c2ccc(O)cc12 [SEROTONIN]	369					
CN1CCN(c2nc3c(F)cccc3n3cccc23)CC1		9.5	4.7	Agonist	0.12	Behavior [5]: Partial agonist
CCCN1CCN(c2nc3cc(F)ccc3n3cccc23)CC1		88	580	Agonist	0.2	Behavior [7]: Partial agonist
C=CCN1CCN(c2nc3cc(F)ccc3n3cccc23)CC1		22	76	Agonist	0.1	Behavior [7]: Partial agonist
Cc1[nH]c2ccc(O)cc2c1CCN		779				
Fc1ccc2c(c1)nc(N1CCNCC1)c1cccn12	203	5.4	3.5	Agonist	0.01	IC50 [8]: 151 nM; IC50 [9]: 167 nM; IC50 [10]: 489 nM; IC50 [11]: 2800 nM; IC50 [12]: > 10 µM; Behavior [13]: Antagonist; Ratio [14]: 37.5
Fc1cccc2nc(N3CCNCC3)c3cccn3c12	1130	3.9	98	Agonist	0.07	IC50 [8]: 268 nM; IC50 [9]: 106 nM; IC50 [10]: 761 nM; IC50 [11]: 784 nM; IC50 [12]: > 10 µM; Behavior [13]: Antagonist
c1ccc2nc(N3CCNCC3)ccc2c1 [QUIPAZINE]	204	6.2	25	Agonist		IC50 [9]: 380 nM; IC50 [10]: 1400 nM; IC50 [11]: 470 nM; IC50 [12]: > 10 µM
CCCN1CCN(c2nc3ccccc3n3cccc23)CC1		51	8.5	Agonist	0.24	Behavior [5]: Partial agonist
CN1CCN(c2nc3cccc(F)c3n3cccc23)CC1		0.44	6.5	Agonist	0.12	Behavior [5]: Partial agonist
CN1CCN(c2cnc3ccccc3n2)CC1		22	510	Agonist	0.06	Behavior [15]: Agonist
CCN1CCN(c2nc3ccccc3n3cccc23)CC1		9	8	Agonist	0.1	Behavior [13]: Antagonist
CN1C[C@@H](NS(=O)(=O)N(C)C)C[C@@H]2c3cccc4c3c(cn4C)C[C@H]21 [MESULERGINE]						IC50 [16]: 2.13 nM
C=CCN1CCN(c2nc3cccc(F)c3n3cccc23)CC1		28	30	Agonist	0.075	Behavior [5]: Partial agonist
CCC(CC)NC(=O)[C@@H]1C=C2c3cccc4c3c(cn4C)C[C@H]2N(C)C1 [METHSERGIDE]						IC50 [17]: 3.1 nM
CN1CCN(c2nc3cc(C(F)(F)F)ccc3n3cccc23)CC1						IC50 [18]: Not Active; Efficacy [19]: inactive
CN1CCN(c2nc3cc(F)ccc3n3cccc23)CC1	232	0.81	3	Agonist		IC50 [8]: 138 nM; IC50 [9]: 371 nM; IC50 [10]: 124 nM; IC50 [11]: 413 nM; IC50 [12]: > 10 µM; ID50 [20]: 0.6 mg/kg; Ratio [14]: 17.5; Behavior [21]: Antagonist
CCCN1CCN(c2nc3cccc(F)c3n3cccc23)CC1		82	73	Agonist	0.3	Behavior [5]: Partial agonist
CN1CCN(c2nc3ccccc3n3cccc23)CC1	214		10	Agonist		IC50 [8]: 89 nM; IC50 [9]: 232 nM; IC50 [10]: 43 nM; IC50 [11]: 780 nM; IC50 [12]: > 10 µM
C=CCN1CCN(c2nc3ccccc3n3cccc23)CC1		11	8.2	Agonist	0.18	Behavior [7]: Partial agonist
